Assay results published in patent US8076487B2, “Pyridone derivative and herbicide” (Kumiai Chemical Industry Co., Ltd., priority 2006, dated 2011).

What was measured:
Assay type in all cases: in vivo
[1] = test system: early watergrass (Echinochloa oryzicola Vasing); experiment: Test Example 1: herbicidal effect by soil application to paddy field; conditions: paddy field soil application; active ingredient 1,000 g per 1 hectare; wettable powder added dropwise to water surface the day after sowing; examined on the 21st day after application
How it was run: (§1)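 Plants were sown in flooded (3 cm) paddy soil and evaluated for herbicidal effect 21 days after soil application in a greenhouse.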

[2] = test system: Japanese bulrush (Scirpus juncoides Roxb.); experiment: as above; conditions: paddy field soil application; active ingredient 1,000 g per 1 hectare; wettable powder added dropwise to water surface the day after sowing; examined on the 21st day after application
How it was run: as §1

[3] = test system: heartshape false pickerelweed (Monochoria vaginalis (Burm.f.) C.Presl); experiment: as above; conditions: paddy field soil application; active ingredient 1,000 g per 1 hectare; wettable powder added dropwise to water surface the day after sowing; examined on the 21st day after application
How it was run: as §1

[4] = test system: velvetleaf (Abutilon theophrasti medicus); experiment: Test Example 2: herbicidal effect by soil application to upland field; conditions: soil surface spray, upland field soil, 1,000 g active ingredient per hectare, 21st day after application
Experimental: (§2) [table] Test Example 2 Test on Herbicidal Effect by Soil Application to Upland field In a 80 cm2 plastic pot, field soil was filled. Seeds of barnyardgrass (Echinochloa crus-galli (L.) P. Beauv. var. crus-galli), green foxtail (Setaria viridis (L.) P. Beauv.), velvetleaf (Abutilon theophrasti medicus), and slender amaranth (Amaranthus viridis L.) were sown and covered with soils. The wettable powder prepared according to Formulation Example 1 was diluted in water and a 1,000 liter equivalent amount per 1 hectare so that the active ingredient becomes 1,000 g per 1 hectare was uniformly sprayed on a soil surface using a small sprayer. Then, on the 21st day after the application to the plants grew in a greenhouse, the herbicidal effect was examined in accordance with a standard shown in Table 34.

[5] = test system: green foxtail (Setaria viridis (L.) P. Beauv.); experiment: as above; conditions: soil surface spray, upland field soil, 1,000 g active ingredient per hectare, 21st day after application
Experimental: as §2

[6] = test system: barnyardgrass (Echinochloa crus-galli (L.) P. Beauv. var. crus-galli); experiment: as above; conditions: soil surface spray, upland field soil, 1,000 g active ingredient per hectare, 21st day after application
Experimental: as §2

[7] = test system: slender amaranth (Amaranthus viridis L.); experiment: as above; conditions: soil surface spray, upland field soil, 1,000 g active ingredient per hectare, 21st day after application
Experimental: as §2

SMILES	herbicidal effect, Echinochloa oryzicola Vasing [1]	herbicidal effect, Scirpus juncoides Roxb. [2]	herbicidal effect, Monochoria vaginalis (Burm. f.) C. Presl [3]	herbicidal effect (index), Velvetleaf [4]	herbicidal effect (index), Green Foxtail [5]	herbicidal effect (index), Barnyardgrass [6]	herbicidal effect (index), Slender Amaranth [7]
CC(C)(C)c1ccc(-n2c(C(F)(F)F)ccc(C(=O)C3=C(O)CCCC3=O)c2=O)cc1 [I-96]	5 (90% or more of herbicidal effect and crop phytotoxicity)	5 (90% or more of herbicidal effect and crop phytotoxicity)	5 (90% or more of herbicidal effect and crop phytotoxicity)	5 (90% or more of herbicidal effect and crop phytotoxicity)	5 (90% or more of herbicidal effect and crop phytotoxicity)	5 (90% or more of herbicidal effect and crop phytotoxicity)	3 (50 to less than 70% of herbicidal effect and crop phytotoxicity)
O=C(C1=C(O)C2CCC(C2)C1=O)c1ccc(C(F)(F)F)n(-c2c(F)cccc2F)c1=O (centres unmarked) [III-37]	5 (90% or more of herbicidal effect and crop phytotoxicity)	4 (70 to less than 90% of herbicidal effect and crop phytotoxicity)	5 (90% or more of herbicidal effect and crop phytotoxicity)	5 (90% or more of herbicidal effect and crop phytotoxicity)	4 (70 to less than 90% of herbicidal effect and crop phytotoxicity)	4 (70 to less than 90% of herbicidal effect and crop phytotoxicity)	4 (70 to less than 90% of herbicidal effect and crop phytotoxicity)
CC(CCn1c(C(F)(F)F)ccc(C(=O)c2cnn(C)c2O)c1=O)=C(F)F [IV-32]	5 (90% or more of herbicidal effect and crop phytotoxicity)	5 (90% or more of herbicidal effect and crop phytotoxicity)	5 (90% or more of herbicidal effect and crop phytotoxicity)	5 (90% or more of herbicidal effect and crop phytotoxicity)	3 (50 to less than 70% of herbicidal effect and crop phytotoxicity)	4 (70 to less than 90% of herbicidal effect and crop phytotoxicity)	5 (90% or more of herbicidal effect and crop phytotoxicity)
CCCS(=O)(=O)Oc1c(C(=O)c2ccc(C(F)(F)F)n(CCS(C)(=O)=O)c2=O)cnn1C [IV-55]	4 (70 to less than 90% of herbicidal effect and crop phytotoxicity)	4 (70 to less than 90% of herbicidal effect and crop phytotoxicity)	5 (90% or more of herbicidal effect and crop phytotoxicity)	4 (70 to less than 90% of herbicidal effect and crop phytotoxicity)	5 (90% or more of herbicidal effect and crop phytotoxicity)	5 (90% or more of herbicidal effect and crop phytotoxicity)	5 (90% or more of herbicidal effect and crop phytotoxicity)
Cn1ncc(C(=O)c2ccc(C(F)(F)F)n(CC3CCCO3)c2=O)c1OC(=O)c1c(Cl)cc(Cl)cc1Cl (centres unmarked) [IV-133]	5 (90% or more of herbicidal effect and crop phytotoxicity)	5 (90% or more of herbicidal effect and crop phytotoxicity)	5 (90% or more of herbicidal effect and crop phytotoxicity)	4 (70 to less than 90% of herbicidal effect and crop phytotoxicity)	3 (50 to less than 70% of herbicidal effect and crop phytotoxicity)	5 (90% or more of herbicidal effect and crop phytotoxicity)	5 (90% or more of herbicidal effect and crop phytotoxicity)
